{"source": "patent US12173313B2", "about": "“Assembly of functionally integrated human forebrain spheroids and methods of use thereof” (The Board of Trustees of the Leland Stanford Junior …, priority 2017, dated 2024)", "key": {"[1]": {"test_system": "TS Dlxi1/2b::eGFP+ cells in fused hSS-hCS", "experiment": "Live imaging of interneuron migration in fused hSS-hCS from Timothy syndrome", "format": "cell-based, human", "details": "15 μM, P<0.001", "protocol": "Live imaging and analysis of Dlxi1/2b::eGFP+ cell migration. The migration of Dlxi1/2b::eGFP+ cells was imaged for 8-12 hrs under environmentally controlled conditions (37° C., 5% CO2) in intact, fused hSS-hCS using a confocal microscope with a motorized stage (Leica SP8). Fused hSS-hCS were transferred to a well of a 96-well plate (glass-bottom plates, Corning) in 200 μl of NM. Spheroids were incubated in the environmentally controlled chamber for 30-60 min prior to imaging. During a given recording session, up to 8 fused hSS-hCS were imaged at a depth of 50-150 μm depth and a rate of 15-20 min/frame. For pharmacological manipulation, cells were imaged for 12 hrs to record a baseline. […] The field of view was readjusted to capture the previous region of interest and cells in fused hSS-hCS were imaged for an additional 12 hrs. […] For quantification of migration of Dlxi1/2b::eGFP+ cells after plating on coverslips, intact hSS were plated on Poly-ornithine/laminin (Sigma) coated glass coverslips (15 mm; Werner). […] To estimate the length of individual saltations, Dlxi1/2b::eGFP cells displaying a swelling of the soma were identified, and distance (in μm) to the new position of the soma following nucleokinesis was recorded manually. […] Path directness was calculated as the E/A ratio. […]"}, "[2]": {"test_system": "Dlxi1/2b::eGFP+ cells in fused hSS-hCS", "experiment": "Live imaging of interneuron migration in fused hSS-hCS (control)", "format": "cell-based, human", "details": "100 nM, before vs after exposure", "protocol": "Live imaging and analysis of Dlxi1/2b::eGFP+ cell migration. The migration of Dlxi1/2b::eGFP+ cells was imaged for 8-12 hrs under environmentally controlled conditions (37° C., 5% CO2) in intact, fused hSS-hCS using a confocal microscope with a motorized stage (Leica SP8). Fused hSS-hCS were transferred to a well of a 96-well plate (glass-bottom plates, Corning) in 200 μl of NM. Spheroids were incubated in the environmentally controlled chamber for 30-60 min prior to imaging. During a given recording session, up to 8 fused hSS-hCS were imaged at a depth of 50-150 μm depth and a rate of 15-20 min/frame. For pharmacological manipulation, cells were imaged for 12 hrs to record a baseline. Then, the media was carefully removed and new media with small molecules (AMD3100 at 100 nM; nimodipine at 5 μM; or roscovitine at 15 μM) was gently added to the well. The field of view was readjusted to capture the previous region of interest and cells in fused hSS-hCS were imaged for an additional 12 hrs. For imaging of Dlxi1/2b::eGFP+ cells, E17-E18 slices were placed on inserts and infected with Dlxi1/2b::eGFP lentivirus after 24 hrs. The slices were imaged 2 days later using a Leica SP8 confocal microscope (see above). For measuring the branch to soma length ratio of human cells on mouse slices, hSSs infected with Dlxi1/2b::eGFP lentivirus were dissociated and placed on top of E13-14 mouse slices, which were placed on cell culture inserts 8-24 hrs before. The hSS-derived Dlxi1/2b::eGFP+ cells were imaged with the Leica SP8 confocal microscope system at least 48 hrs later. The migration of mouse Dlxi1/2b::eGFP+ cells or Cav1.2-electroporated cells and the migration of human fetal Dlxi1/2b::eG FP-infected cells both imaged using the same setting as described for intact, fused hSS-hCS. Slices were kept on the cell culture inserts during imaging. For quantification of migration of Dlxi1/2b::eGFP+ cells after plating on coverslips, intact hSS were plated on Poly-ornithine/laminin (Sigma) coated glass coverslips (15 mm; Werner). Cells were imaged 7-10 days after using a confocal microscope (Leica SP8) as described above. ImageJ and the Chemotaxis & Migration Tool (Ibidi) were used for the post-acquisition analysis of cell mobility. The StackReg plugin in ImageJ was used to correct for minor drifts during imaging. To estimate the length of individual saltations, Dlxi1/2b::eGFP cells displaying a swelling of the soma were identified, and distance (in μm) to the new position of the soma following nucleokinesis was recorded manually. The time necessary for this movement was used to calculate the speed when mobile. […] Path directness was calculated as the E/A ratio. […]"}, "[3]": {"test_system": "Wnt processing and secretion", "details": "cell-free assay; read-out: IC50, inhibition of Wnt processing and secretion; cited from earlier work"}, "[4]": {"biological_target": "element-binding protein (CBP) (Homo sapiens, UniProt Q92793)", "sequence (Q92793 whole entry)": "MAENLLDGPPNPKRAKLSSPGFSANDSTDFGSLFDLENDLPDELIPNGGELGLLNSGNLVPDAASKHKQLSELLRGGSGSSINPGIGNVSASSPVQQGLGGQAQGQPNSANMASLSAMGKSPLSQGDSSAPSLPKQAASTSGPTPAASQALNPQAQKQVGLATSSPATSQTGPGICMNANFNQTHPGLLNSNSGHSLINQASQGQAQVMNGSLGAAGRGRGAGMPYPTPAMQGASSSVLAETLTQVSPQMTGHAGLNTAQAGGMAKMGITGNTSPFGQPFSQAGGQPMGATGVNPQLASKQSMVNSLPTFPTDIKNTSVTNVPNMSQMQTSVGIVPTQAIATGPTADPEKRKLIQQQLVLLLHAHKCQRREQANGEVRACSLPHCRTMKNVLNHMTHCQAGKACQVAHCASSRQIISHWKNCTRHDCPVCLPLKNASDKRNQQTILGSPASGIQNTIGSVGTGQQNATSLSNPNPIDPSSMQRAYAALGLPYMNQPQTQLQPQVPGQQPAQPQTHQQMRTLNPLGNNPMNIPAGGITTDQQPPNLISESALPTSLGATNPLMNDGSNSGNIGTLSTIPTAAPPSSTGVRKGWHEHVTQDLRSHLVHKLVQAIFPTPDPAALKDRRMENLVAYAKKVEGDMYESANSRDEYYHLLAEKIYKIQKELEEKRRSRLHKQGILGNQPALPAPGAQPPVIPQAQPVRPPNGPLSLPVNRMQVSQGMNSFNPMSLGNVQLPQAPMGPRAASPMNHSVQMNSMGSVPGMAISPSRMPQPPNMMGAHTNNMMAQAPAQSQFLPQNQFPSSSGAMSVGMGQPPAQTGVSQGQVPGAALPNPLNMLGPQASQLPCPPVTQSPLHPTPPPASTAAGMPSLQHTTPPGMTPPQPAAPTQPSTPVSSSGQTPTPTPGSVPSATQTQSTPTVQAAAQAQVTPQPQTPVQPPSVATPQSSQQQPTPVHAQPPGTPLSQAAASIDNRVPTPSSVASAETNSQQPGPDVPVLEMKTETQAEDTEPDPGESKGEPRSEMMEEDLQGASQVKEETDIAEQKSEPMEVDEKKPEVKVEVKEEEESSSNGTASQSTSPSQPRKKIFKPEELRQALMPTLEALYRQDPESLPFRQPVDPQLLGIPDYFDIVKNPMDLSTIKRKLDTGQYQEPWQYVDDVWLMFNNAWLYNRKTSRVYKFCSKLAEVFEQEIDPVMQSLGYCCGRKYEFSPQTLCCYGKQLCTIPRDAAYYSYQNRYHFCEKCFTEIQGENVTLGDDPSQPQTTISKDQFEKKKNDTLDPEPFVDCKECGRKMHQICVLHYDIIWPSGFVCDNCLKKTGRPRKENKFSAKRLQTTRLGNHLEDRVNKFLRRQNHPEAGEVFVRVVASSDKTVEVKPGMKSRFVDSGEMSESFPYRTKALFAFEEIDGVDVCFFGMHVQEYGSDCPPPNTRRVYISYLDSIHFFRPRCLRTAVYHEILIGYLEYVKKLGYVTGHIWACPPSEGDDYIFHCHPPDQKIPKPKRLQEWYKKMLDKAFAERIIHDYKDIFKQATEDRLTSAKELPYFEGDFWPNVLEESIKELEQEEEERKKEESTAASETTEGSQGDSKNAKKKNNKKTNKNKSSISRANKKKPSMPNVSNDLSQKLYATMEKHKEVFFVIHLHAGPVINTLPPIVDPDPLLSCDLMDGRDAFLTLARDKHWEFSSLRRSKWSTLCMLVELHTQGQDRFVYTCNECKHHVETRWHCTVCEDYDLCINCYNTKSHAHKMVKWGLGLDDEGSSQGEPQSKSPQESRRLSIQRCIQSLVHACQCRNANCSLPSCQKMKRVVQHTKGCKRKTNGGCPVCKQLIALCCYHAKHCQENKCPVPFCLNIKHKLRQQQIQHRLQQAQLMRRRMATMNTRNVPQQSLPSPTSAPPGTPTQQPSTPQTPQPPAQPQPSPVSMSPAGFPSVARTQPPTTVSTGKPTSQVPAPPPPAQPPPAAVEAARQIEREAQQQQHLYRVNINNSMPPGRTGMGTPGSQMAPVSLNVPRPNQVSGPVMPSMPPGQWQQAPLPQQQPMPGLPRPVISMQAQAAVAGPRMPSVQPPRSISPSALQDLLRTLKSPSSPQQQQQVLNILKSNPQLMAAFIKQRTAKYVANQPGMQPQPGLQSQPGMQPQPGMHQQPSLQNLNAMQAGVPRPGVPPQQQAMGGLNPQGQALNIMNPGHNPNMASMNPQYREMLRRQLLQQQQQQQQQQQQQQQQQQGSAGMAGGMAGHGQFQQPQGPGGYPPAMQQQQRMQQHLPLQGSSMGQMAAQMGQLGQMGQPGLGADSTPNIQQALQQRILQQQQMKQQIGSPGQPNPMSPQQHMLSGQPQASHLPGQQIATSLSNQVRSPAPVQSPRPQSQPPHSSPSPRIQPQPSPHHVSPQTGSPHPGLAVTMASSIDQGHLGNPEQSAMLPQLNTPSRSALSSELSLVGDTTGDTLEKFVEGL", "details": "cited from earlier work"}, "hSS [5]": {"test_system": "hSS", "experiment": "Fluo-4 calcium imaging in intact hSS", "details": "7 days AlloP 100 nM combined with 3-day retinoic acid 100 nM (hSS-ISRA); ~day 50; P=0.006", "description": "The generation of hCS from hiPSC was performed as previously described. […] For the generation of hSS, the medium was supplemented with additional small molecules during the first 23 days in culture; a schematic showing the recipes is presented in FIG. 8a). […] IWP-2 (5 μM; Selleckchem) from day 4 until day 24, and the SHH pathway agonist SAG (smoothened agonist; 100 nM; Selleckchem) from day 12 to day 24. The hSS-ISA condition also included IWP2 and SAG with the addition of allopregnanolone (AlloP 100 nM; Cayman Chemicals) from day 15 to day 23, while the hSS-ISRA condition included AlloP (100 nM) from day 15-23, and a brief exposure (day 12-15) to retinoic acid (RA 100 nM; Sigma). From day 25 to 42, the NM for both the hCS and hSS conditions, was supplemented with the growth factors BDNF (20 ng/ml; Peprotech) and NT3 (20 ng/ml; Peprotech) with medium changes every other day. From day 43 onwards, hCS and hSS were maintained in unsupplemented NM with medium changes every four to six days.\nFluo-4 calcium imaging in intact hSS. […] Spontaneous calcium activity was recorded for 10 min (one frame every 8-10 s) in one 10 μm z-stack plane. Fluorescence intensity (F) was exported as mean gray values in ImageJ. Signal decay was controlled by subtracting the mean fluorescence of the background (Fb). […]"}, "hSS [6]": {"test_system": "hSS", "experiment": "Characterization of hSS differentiation conditions (RT-qPCR, immunostaining)", "details": "AlloP with or without RA (hSS-ISA, hSS-ISRA)", "description": "For the generation of hSS, the medium was supplemented with additional small molecules during the first 23 days in culture; a schematic showing the recipes is presented in FIG. 8a). […] IWP-2 (5 μM; Selleckchem) from day 4 until day 24, and the SHH pathway agonist SAG (smoothened agonist; 100 nM; Selleckchem) from day 12 to day 24. The hSS-ISA condition also included IWP2 and SAG with the addition of allopregnanolone (AlloP 100 nM; Cayman Chemicals) from day 15 to day 23, while the hSS-ISRA condition included AlloP (100 nM) from day 15-23, and a brief exposure (day 12-15) to retinoic acid (RA 100 nM; Sigma). From day 25 to 42, the NM for both the hCS and hSS conditions, was supplemented with the growth factors BDNF (20 ng/ml; Peprotech) and NT3 (20 ng/ml; Peprotech) with medium changes every other day. From day 43 onwards, hCS and hSS were maintained in unsupplemented NM with medium changes every four to six days.\nImmunohistochemistry. Cryosections were washed with PBS to remove excess OCT and blocked in 10% goat serum (NGS), 0.3% Triton X-100 diluted in PBS for 1 hr at room temperature. […]\nReal time quantitative PCR (qPCR). mRNA was isolated using the RNeasy Mini Kit and RNase-Free DNase set (Qiagen), and template cDNA was prepared by reverse transcription using the SuperScript III First-Strand Synthesis SuperMix for qRT-PCR (Life Technologies). […]"}, "[7]": {"test_system": "Dlxi1/2b::eGFP cells that migrated into hCS", "details": "10 μM; fused hSS-hCS slices", "protocol": "(§1) Electrophysiology. […] Slicing was performed using a Leica VT1200 vibratome. Immediately after sectioning, slices were moved to a circulation chamber containing ACSF at 32° C.\n(§2) For patch-clamp recording, cells were identified by the presence of a fluorescent reporter using an upright Axoscop II microscope (Zeiss). […] Cl− reversal was calculated to be at −91 mV according to the Nernst equation. […] The Cl− reversal potential was calculated to be 0 mV according to the Nernst equation. IPSCs were blocked by application of the GABAA receptor antagonist gabazine (10 μM, Abcam), which was added to superfused ACSF. EPSCs were blocked by application of the glutamate receptor antagonist kynurenic acid (1 mM, Abcam), which was added to superfused ACSF. Electrical simulation was delivered using a bipolar tungsten electrode (FHS) placed […] away from a recorded neuron. Stimulations were delivered to slices for 0.1 ms at […] and separated by at least 10 s. Inward EPSCs and outward IPSPs were recorded by filling the patch pipette with a low chloride internal solution (ECI−=−90 mV) and holding the cell at −40 mV, which is the midpoint between ECI− and EK+/Na+. […] Recordings were filtered at 10 kHz. Synaptic recordings were analyzed using custom software developed by J. R. H. (Wdetecta)."}, "neurons in hSS": {"test_system": "neurons in hSS", "details": "10 μM; 250 μm sections of hSS", "protocol": "as §1, §2"}, "TNKS2": {"biological_target": "T1, TNKS2 (Homo sapiens, UniProt Q9H2K2)", "T1 sequence (Q9H2K2 1-1166)": "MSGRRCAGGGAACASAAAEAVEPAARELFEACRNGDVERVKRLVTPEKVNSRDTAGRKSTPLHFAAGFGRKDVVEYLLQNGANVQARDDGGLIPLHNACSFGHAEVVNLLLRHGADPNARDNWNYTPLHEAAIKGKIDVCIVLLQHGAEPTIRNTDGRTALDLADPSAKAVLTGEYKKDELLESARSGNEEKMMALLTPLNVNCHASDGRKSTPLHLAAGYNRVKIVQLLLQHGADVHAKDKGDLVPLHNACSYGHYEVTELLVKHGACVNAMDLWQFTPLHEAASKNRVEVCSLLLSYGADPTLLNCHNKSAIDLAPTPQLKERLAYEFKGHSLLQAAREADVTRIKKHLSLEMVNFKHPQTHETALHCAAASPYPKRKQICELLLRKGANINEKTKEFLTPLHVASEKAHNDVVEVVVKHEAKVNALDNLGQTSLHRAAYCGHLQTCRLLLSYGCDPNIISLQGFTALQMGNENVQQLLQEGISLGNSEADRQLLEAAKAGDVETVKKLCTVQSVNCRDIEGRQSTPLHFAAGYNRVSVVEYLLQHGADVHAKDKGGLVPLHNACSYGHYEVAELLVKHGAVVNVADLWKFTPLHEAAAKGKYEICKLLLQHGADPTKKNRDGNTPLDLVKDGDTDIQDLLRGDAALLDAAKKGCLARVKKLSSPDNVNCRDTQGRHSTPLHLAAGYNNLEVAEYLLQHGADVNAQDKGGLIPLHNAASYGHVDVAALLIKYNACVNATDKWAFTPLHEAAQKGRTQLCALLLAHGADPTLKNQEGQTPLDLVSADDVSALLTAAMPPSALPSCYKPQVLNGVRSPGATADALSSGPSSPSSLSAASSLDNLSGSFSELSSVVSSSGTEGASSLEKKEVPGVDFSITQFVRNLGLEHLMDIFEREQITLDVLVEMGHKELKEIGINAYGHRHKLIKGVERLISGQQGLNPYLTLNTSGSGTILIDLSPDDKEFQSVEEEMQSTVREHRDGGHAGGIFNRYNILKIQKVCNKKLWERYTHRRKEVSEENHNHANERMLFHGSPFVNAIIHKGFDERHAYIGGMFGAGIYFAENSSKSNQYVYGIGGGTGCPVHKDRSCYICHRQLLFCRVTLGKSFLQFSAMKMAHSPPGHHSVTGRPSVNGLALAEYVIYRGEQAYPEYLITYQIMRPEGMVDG", "details": "cited from earlier work"}, "[8]": {"biological_target": "Wnt3A-mediated activation of a multimerized TCF-binding site driving luciferase", "details": "HEK293 cells; cited from earlier work"}, "hCS neurons": {"test_system": "hCS neurons", "experiment": "Patch clamp recording of EPSCs in sliced hCS", "format": "cell-based, human", "details": "1 mM, added to superfused ACSF", "protocol": "Electrophysiology. […] Slicing was performed using a Leica VT1200 vibratome. […] Recordings were filtered at 10 kHz. […] Action potentials were analyzed using custom MATLAB (MathWorks) programs."}, "Smo": {"biological_target": "Smo (Homo sapiens, UniProt Q99835)", "sequence (Q99835 28-787)": "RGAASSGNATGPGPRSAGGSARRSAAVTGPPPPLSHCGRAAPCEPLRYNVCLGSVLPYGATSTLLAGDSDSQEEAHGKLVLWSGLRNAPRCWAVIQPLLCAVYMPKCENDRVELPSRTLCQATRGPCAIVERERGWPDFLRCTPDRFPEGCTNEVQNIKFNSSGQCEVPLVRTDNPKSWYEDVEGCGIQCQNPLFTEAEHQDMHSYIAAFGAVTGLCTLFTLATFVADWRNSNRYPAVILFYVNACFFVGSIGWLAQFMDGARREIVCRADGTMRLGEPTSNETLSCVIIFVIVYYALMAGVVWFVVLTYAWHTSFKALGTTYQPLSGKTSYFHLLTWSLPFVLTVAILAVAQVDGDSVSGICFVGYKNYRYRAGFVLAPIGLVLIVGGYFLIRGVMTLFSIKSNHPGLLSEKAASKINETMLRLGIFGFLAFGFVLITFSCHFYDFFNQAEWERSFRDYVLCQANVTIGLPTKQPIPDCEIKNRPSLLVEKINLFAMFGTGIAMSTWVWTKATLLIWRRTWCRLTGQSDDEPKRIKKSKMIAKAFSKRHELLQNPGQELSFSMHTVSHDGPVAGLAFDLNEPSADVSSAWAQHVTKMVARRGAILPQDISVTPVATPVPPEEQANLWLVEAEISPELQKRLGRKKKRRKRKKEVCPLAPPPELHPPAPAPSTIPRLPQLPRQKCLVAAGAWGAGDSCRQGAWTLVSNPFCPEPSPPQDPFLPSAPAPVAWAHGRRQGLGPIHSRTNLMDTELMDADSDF", "details": "read-out: KD, Smo heptahelical domain; cited from earlier work"}, "Wnt signaling": {"test_system": "Wnt signaling", "details": "TM3 cells; read-out: IC50, inhibition of Wnt signaling; cited from earlier work"}, "Porcn": {"biological_target": "T2, Porcn (Homo sapiens, UniProt Q9H237)", "T2 sequence (Q9H237 1-461)": "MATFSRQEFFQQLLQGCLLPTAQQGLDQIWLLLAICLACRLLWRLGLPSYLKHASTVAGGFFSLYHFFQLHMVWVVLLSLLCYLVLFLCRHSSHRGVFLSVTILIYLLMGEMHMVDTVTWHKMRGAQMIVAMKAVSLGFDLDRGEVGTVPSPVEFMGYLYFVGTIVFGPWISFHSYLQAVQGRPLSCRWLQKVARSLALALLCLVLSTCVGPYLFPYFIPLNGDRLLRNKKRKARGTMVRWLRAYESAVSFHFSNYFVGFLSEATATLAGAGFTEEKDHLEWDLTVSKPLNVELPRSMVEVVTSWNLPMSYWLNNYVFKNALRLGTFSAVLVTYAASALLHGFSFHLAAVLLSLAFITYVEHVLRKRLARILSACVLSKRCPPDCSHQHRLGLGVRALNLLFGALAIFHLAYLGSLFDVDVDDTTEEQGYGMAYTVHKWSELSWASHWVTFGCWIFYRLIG", "details": "read-out: EC50, Porcn inhibition; cited from earlier work"}}, "data": [{"smiles": "CC[C@H](CO)Nc1nc(NCc2ccccc2)c2ncn(C(C)C)c2n1", "note": "[roscovitine]", "values": [{"measurement": "saltation length", "setting": "[1]", "result": "rescuing"}]}, {"smiles": "c1cc(CN2CCCNCCNCCCNCC2)ccc1CN1CCCNCCNCCCNCC1", "note": "[AMD3100]", "values": [{"measurement": "saltation length", "setting": "[2]; P=0.006", "result": "significant reduction"}, {"measurement": "speed when mobile", "setting": "[2]; P=0.006", "result": "significant reduction"}, {"measurement": "path directness", "setting": "[2]; P=0.02", "result": "change"}, {"measurement": "frequency of saltations", "setting": "[2]; P=0.03", "result": "significant reduction"}]}, {"smiles": "Cc1ccc2nc(NC(=O)CSc3nc4c(c(=O)n3-c3ccccc3)SCC4)sc2c1", "note": "[IWP-2]", "values": [{"measurement": "IC50", "setting": "[3]", "result": 27, "unit": "nM"}]}, {"smiles": "O=C1[C@H](Cc2ccc(O)cc2)N2C(=O)CCN(C(=O)NCc3ccccc3)[C@H]2CN1Cc1cccc2ccccc12", "note": "[ICG-001]", "values": [{"measurement": "IC50", "setting": "[4]", "result": 3000, "unit": "nM"}]}, {"smiles": "CC(=O)[C@H]1CC[C@H]2[C@@H]3CC[C@H]4C[C@H](O)CC[C@]4(C)[C@H]3CC[C@]12C", "note": "[allopregnanolone]", "values": [{"measurement": "frequency of spontaneous calcium spikes", "setting": "hSS [5]", "result": "significantly increased"}, {"measurement": "subpallial fate, neurotransmitter identity and GABAergic subtypes in hSS", "setting": "hSS [6]", "result": "did not alter"}]}, {"smiles": "COc1ccc(-c2ccc(=N)n(CCCC(=O)O)n2)cc1", "note": "[gabazine]", "values": [{"measurement": "evoked disynaptic IPSCs after electrical stimulation", "setting": "[7]", "result": "sensitive"}, {"measurement": "spontaneous inhibitory postsynaptic responses (sIPSCs)", "setting": "neurons in hSS", "result": "abolished"}]}, {"smiles": "COc1ccc(-n2c(SCCCN3C(=O)c4cccc5cccc(c45)C3=O)nnc2-c2ccncc2)cc1", "note": "[WIKI4]", "values": [{"measurement": "IC50", "setting": "TNKS2", "result": 15, "unit": "nM"}]}, {"smiles": "Cc1cc(-c2ccc(CC(=O)Nc3ccc(-c4cccnc4)cc3)cc2)ccn1", "note": "[Wnt-059]", "values": [{"measurement": "IC50", "setting": "[8]", "result": 0.074, "unit": "nM"}]}, {"smiles": "O=C(O)c1cc(=O)c2ccccc2[nH]1", "note": "[kynurenic acid]", "values": [{"measurement": "EPSCs", "setting": "hCS neurons", "result": "blocked"}]}, {"smiles": "CNC1CCC(N(Cc2cccc(-c3ccncc3)c2)C(=O)c2sc3ccccc3c2Cl)CC1", "note": "(centres unmarked) [SAG]", "values": [{"measurement": "Kd", "setting": "Smo", "result": 59, "unit": "nM"}]}, {"smiles": "Cc1cc(-c2ncc(CC(=O)Nc3ccc(-c4cnccn4)cn3)cc2C)ccn1", "note": "[LGK-974]", "values": [{"measurement": "IC50", "setting": "Wnt signaling", "result": 0.4, "unit": "nM"}]}, {"smiles": "O=C(CSc1nc2c(c(=O)n1-c1ccccc1)SCC2)Nc1ccc(-c2ccccc2)cn1", "note": "[IWP-L6]", "values": [{"measurement": "EC50", "setting": "Porcn", "result": 0.5, "unit": "nM"}]}]}
